Assay results published in publication PMC6930660, “Synthesis and Comparative Structure–Activity Study of Carbohydrate-Based Phenolic Compounds as α-Glucosidase Inhibitors and Antioxidants” (Molecules, 2019).
“And” between values parts separate entries of the source, which are not always exact repeats. Equal values may be shown once.

Experiments:
rat α-glucosidase = experiment: α-glucosidase inhibitory activity assay (FUJIFILM kit, maltose substrate, glucose measured by mutarotase-GOD method); type: biochemical; conditions: for IC50: rat α-glucosidase, 18.5 mM maltose, maleic anhydride buffer pH 6.0, 37 °C, 30 min, mean ± S.D. of n = 2; for α-glucosidase inhibitory activity, fold higher than acertannin (37): relative to acertannin (37)
Protocol: The α-glucosidase inhibitory activity of all samples was assayed utilizing a commercially available FUJIFILM α-glucosidase inhibitory activity assay kit. In total, 25 μL of each sample (25–2000 μg/mL in H2O ) or acarbose (0.5–8 μg/mL in H2O ), 50 μL of 18.5 mM maltose diluted in maleic anhydride buffer (100 mM, pH = 6.0), and 25 μL of the rat α-glucosidase solution were incubated in a micro-tube at 37 °C for 30 min. Subsequently, 400 μL of purified water was added to the solution and the reaction mixture was boiled for 3 min to deactivate α-glucosidase. The generated glucose was measured by LabAssay™ glucose (mutarotase-GOD method). In total, 100 μL of the reaction solution and 150 μL of the coloring solution were incubated in 96-well plates at 37 °C for 10 min, and the absorbance was recorded at 505 nm using a microplate reader (Bio-Rad, Model 680). The inhibition percentage was calculated using the following Equation: Inhibition percentage (%) = 1−As−Ab/Ac ×100 where As is the absorbance of the analyzed sample, Ab is the absorbance of the blank (immediate deactivation), and Ac is the absorbance of the control ([…]). Acarbose was used as the positive control.

[1] = DPPH radical scavenging assay (antioxidant activity); conditions: for EC50: MES-NaOH buffer pH 6.0, 15 min in the dark; for Antioxidant Trolox-eq (TE): trolox-equivalent (mol-trolox/mol-sample) = slope of sample / slope of trolox
Protocol: The antioxidant activity was assessed by employing the 2,2-diphenyl-1-picrylhydrazyl (DPPH) radical scavenging assay, according to the previously published method. In total, 100 μL of each sample (1000–10 μg/mL in 50%EtOH/ H2O ) or trolox (160–0 μM in 50% EtOH/ H2O ), and 50 μL of 2-(N-morpholino)ethanesulfonic acid (MES)-NaOH buffer (200 mM, pH = 6.0), and 50 μL of an 800 μM DPPH diluted in 99.5% EtOH were mixed in 96-well plates. Following shaking the microplate for 15 min in the dark, the absorbance was recorded at 520 nm using a microplate reader (Bio-Rad, Model 680). Effective percentages (%) were calculated as follows: Effective percentages (%) = 1−As/Ab ×100 where As is the absorbance of the sample and Ab is the absorbance of the blank (without samples, 50% EtOH/ H2O solution was used instead).
The trolox-equivalent (sample-mol/trolox-mol) was calculated as follows: Trolox−equivalent (mol−trolox/mol−sample) = Ss/St where Ss is the slope of the sample and St is the slope of trolox.

Molecule	IC50 (rat α-glucosidase) [µM]	α-glucosidase inhibitory activity, fold higher than acertannin (37) (rat α-glucosidase)	EC50 ([1]; mean ± S.D. of n = 3) [µM]	α-glucosidase inhibitory activity relative to gallic acid (rat α-glucosidase; relative to gallic acid)	Antioxidant Trolox-eq (TE) ([1]; mean ± S.D. of n = 3)	antioxidant activity (in words) [1]	Antioxidant Trolox-eq (TE) ([1]; mean ± S.D. of n = 3, listed as methyl 3,4-dihydroxybenzoate)
C[C@H]1O[C@H](O[C@H]2[C@H](O)[C@@H](O)[C@@H](O[C@H]3[C@H](O)[C@@H](O)C(O)O[C@@H]3CO)O[C@@H]2CO)[C@H](O)[C@@H](O)[C@@H]1N[C@H]1C=C(CO)[C@@H](O)[C@H](O)[C@H]1O (stereo partly drawn) [Acarbose, reference compound]	0.11 ± 0.02						
O=C(O[C@H]1CO[C@H](CO)[C@@H](O)[C@@H]1O)c1cc(O)c(O)c(O)c1 [Compound 31, 1,5-Anhydro-2-O-(3′,4′,5′-trihydroxybenzoyl)-D-glucitol]	95.1 ± 0.22		19.4 ± 1.02		2.04 ± 0.08		
O=C(O[C@H]1[C@H](O)[C@@H](CO)OC[C@@H]1O)c1cc(O)c(O)c(O)c1 [Compound 32, 1,5-Anhydro-3-O-(3′,4′,5′-trihydroxybenzoyl)-D-glucitol]	138 ± 1.5		20.5 ± 2.05		2.38 ± 0.24		
O=C(O[C@H]1[C@H](O)[C@@H](O)CO[C@@H]1CO)c1cc(O)c(O)c(O)c1 [Compound 33, 1,5-Anhydro-4-O-(3′,4′,5′-trihydroxybenzoyl)-D-glucitol]	143.9 ± 0.52		20.8 ± 1.54		2.09 ± 0.19		
O=C(OC[C@H]1OC[C@H](O)[C@@H](O)[C@@H]1O)c1cc(O)c(O)c(O)c1 [Compound 34, 1,5-Anhydro-6-O-(3′,4′,5′-trihydroxybenzoyl)-D-glucitol]	127.1 ± 0.88		22.9 ± 1.61		2.13 ± 0.12		
O=C(O[C@H]1[C@H](O)[C@@H](CO)OC[C@@H]1OC(=O)c1cc(O)c(O)c(O)c1)c1cc(O)c(O)c(O)c1 [Compound 35, 1,5-Anhydro-2,3-bis-O-(3′,4′,5′-trihydroxybenzoyl)-D-glucitol]	20.5 ± 0.5		11.3 ± 0.98	three-times higher	4.29 ± 0.23		
O=C(O[C@H]1[C@H](O)[C@@H](OC(=O)c2cc(O)c(O)c(O)c2)CO[C@@H]1CO)c1cc(O)c(O)c(O)c1 [Compound 36, 1,5-Anhydro-2,4-bis-O-(3′,4′,5′-trihydroxybenzoyl)-D-glucitol]	48.3 ± 1.25		14.3 ± 0.29		3.36 ± 0.13		
O=C(OC[C@H]1OC[C@H](OC(=O)c2cc(O)c(O)c(O)c2)[C@@H](O)[C@@H]1O)c1cc(O)c(O)c(O)c1 [Compound 37, 1,5-Anhydro-2,6-bis-O-(3′,4′,5′-trihydroxybenzoyl)-D-glucitol]	35.6 ± 2.58		15.2 ± 0.53		3.32 ± 0.37		
O=C(O[C@H]1[C@H](OC(=O)c2cc(O)c(O)c(O)c2)[C@@H](CO)OC[C@@H]1O)c1cc(O)c(O)c(O)c1 [Compound 38, 1,5-Anhydro-3,4-bis-O-(3′,4′,5′-trihydroxybenzoyl)-D-glucitol]	91.4 ± 6.56		14.8 ± 0.56		3.55 ± 0.42		
O=C(OC[C@H]1OC[C@H](O)[C@@H](OC(=O)c2cc(O)c(O)c(O)c2)[C@@H]1O)c1cc(O)c(O)c(O)c1 [Compound 39, 1,5-Anhydro-3,6-bis-O-(3′,4′,5′-trihydroxybenzoyl)-D-glucitol]	55 ± 8.84		11.9 ± 0.71		3.67 ± 0.19		
O=C(OC[C@H]1OC[C@H](O)[C@@H](O)[C@@H]1OC(=O)c1cc(O)c(O)c(O)c1)c1cc(O)c(O)c(O)c1 [Compound 40, 1,5-Anhydro-4,6-bis-O-(3′,4′,5′-trihydroxybenzoyl)-D-glucitol]	26.6 ± 2.37		13 ± 1.12		3.78 ± 0.33		

Second part, led by results:

IC50 (rat α-glucosidase) [µM]	α-glucosidase inhibitory activity, fold higher than acertannin (37) (rat α-glucosidase)	EC50 ([1]; mean ± S.D. of n = 3) [µM]	α-glucosidase inhibitory activity relative to gallic acid (rat α-glucosidase; relative to gallic acid)	Molecule	Antioxidant Trolox-eq (TE) ([1]; mean ± S.D. of n = 3)	antioxidant activity (in words) [1]	Antioxidant Trolox-eq (TE) ([1]; mean ± S.D. of n = 3, listed as methyl 3,4-dihydroxybenzoate)
2.56 ± 0.1	more than 13 fold	6.61 ± 0.68		2,3,4,6-tetrakis-O-(3′,4′,5′-Trihydroxybenzoyl)-D-glucitol [Compound 54]	6.77 ± 0.63		
6.72 ± 0.21		7.94 ± 0.39		O=C(O[C@H]1[C@H](OC(=O)c2cc(O)c(O)c(O)c2)[C@@H](CO)OC[C@@H]1OC(=O)c1cc(O)c(O)c(O)c1)c1cc(O)c(O)c(O)c1 [Compound 41, 1,5-Anhydro-2,3,4-tris-O-(3′,4′,5′-trihydroxybenzoyl)-D-glucitol]	5.59 ± 0.26		
5.34 ± 0.55		8.09 ± 0.41		O=C(OC[C@H]1OC[C@H](OC(=O)c2cc(O)c(O)c(O)c2)[C@@H](OC(=O)c2cc(O)c(O)c(O)c2)[C@@H]1O)c1cc(O)c(O)c(O)c1 [Compound 42, 1,5-Anhydro-2,3,6-tris-O-(3′,4′,5′-trihydroxybenzoyl)-D-glucitol]	5.75 ± 0.18		
9.34 ± 0.99		10.3 ± 0.76		O=C(OC[C@H]1OC[C@H](OC(=O)c2cc(O)c(O)c(O)c2)[C@@H](O)[C@@H]1OC(=O)c1cc(O)c(O)c(O)c1)c1cc(O)c(O)c(O)c1 [Compound 43, 1,5-Anhydro-2,4,6-tris-O-(3′,4′,5′-trihydroxybenzoyl)-D-glucitol]	4.31 ± 0.35		
12.6 ± 0.61		8.48 ± 0.21		O=C(OC[C@H]1OC[C@H](O)[C@@H](OC(=O)c2cc(O)c(O)c(O)c2)[C@@H]1OC(=O)c1cc(O)c(O)c(O)c1)c1cc(O)c(O)c(O)c1 [Compound 44, 1,5-Anhydro-3,4,6-tris-O-(3′,4′,5′-trihydroxybenzoyl)-D-glucitol]	5.36 ± 0.20		
3.28 ± 0.16		6.99 ± 0.11		O=C(OC[C@H]1OC[C@H](OC(=O)c2ccc(O)c(O)c2)[C@@H](OC(=O)c2ccc(O)c(O)c2)[C@@H]1OC(=O)c1ccc(O)c(O)c1)c1ccc(O)c(O)c1 [Compound 55, 1,5-Anhydro-2,3,4,6-tetrakis-O-(3′,4′-dihydroxybenzoyl)-D-glucitol]	6.54 and 6.54 ± 0.15		
9.34 ± 0.02		> 70		O=C(OC[C@H]1OC[C@H](OC(=O)c2cc(O)cc(O)c2)[C@@H](OC(=O)c2cc(O)cc(O)c2)[C@@H]1OC(=O)c1cc(O)cc(O)c1)c1cc(O)cc(O)c1 [Compound 56, 1,5-Anhydro-2,3,4,6-tetrakis-O-(3,5-dihydroxybenzoyl)-D-glucitol]		no antioxidant activity was observed	
1.68 ± 0.21	more than 13 fold	5.6 ± 0.28		O=C(OC[C@H]1OC(O)[C@H](OC(=O)c2cc(O)c(O)c(O)c2)[C@@H](OC(=O)c2cc(O)c(O)c(O)c2)[C@@H]1OC(=O)c1cc(O)c(O)c(O)c1)c1cc(O)c(O)c(O)c1 (stereo partly drawn) [Compound 61, 2,3,4,6-tetrakis-O-(3′,4′,5′-Trihydroxybenzoyl)-α,β-D-glucopyranose]	8.33 ± 0.49		
3.22 ± 0.51		6.79 ± 0.21		O=C(O[C@H]1[C@@H]2OC(=O)c3cc(O)c(O)c(O)c3-c3c(cc(O)c(O)c3O)C(=O)OC[C@H]2OC[C@@H]1OC(=O)c1cc(O)c(O)c(O)c1)c1cc(O)c(O)c(O)c1 [Compound 67, 1,5-Anhydro-2,3-bis-O-(3′,4′,5′-trihydroxybenzoyl)-4,6-O-hexahydroxydiphenyl-D-glucitol]	6.44 and 6.44 ± 0.24		
> 300		21.1 ± 1.08		COC(=O)c1ccc(O)c(O)c1 [Methyl 3,4-dihydroxybenzoate, methyl 3,4-dihydroxybenzoate, reference compound]	2.20 ± 0.05		2.20
> 300				COC(=O)c1cc(O)cc(O)c1 [Methyl 3,5-dihydroxybenzoate, methyl 3,5-dihydroxybenzoate, reference compound]		did not exhibit any notable activity	
> 660				COC(=O)c1cccc(O)c1 [Methyl 3-hydroxybenzoate, methyl 3-hydroxybenzoate, reference compound]		did not exhibit any notable activity	
> 660				COC(=O)c1ccc(O)cc1 [Methyl 4-hydroxybenzoate, methyl 4-hydroxybenzoate, reference compound]		did not exhibit any notable activity	
90.5 ± 6.97		19.6 ± 0.11		COC(=O)c1cc(O)c(O)c(O)c1 [Methyl gallate, reference compound]	2.42 ± 0.27		
		49.4 ± 3.87		Cc1c(C)c2c(c(C)c1O)CCC(C)(C(=O)O)O2 (stereo not drawn) [Trolox, reference compound]			
